We go through nine molecules from PMC11358882, “Neuroprotective Effects of Phenolic Constituents from Drynariae Rhizoma” (Pharmaceuticals, 2024).

One assay deals with T1, AChE from electric eel (Electrophorus electricus, UniProt O42275).
T1 construct: purchased Sigma-Aldrich Co., St. Louis, USA
Briefly: biochemical. Type of assay: biochemical. On the procedure:
(§1) The AChE- and BChE-inhibitory, MTT, and Th T assays were analyzed using a UV–visible (VIS) spectrophotometer (Biotek, EPOCH2, Winooski, VT, USA), ensuring accurate measurements. For BACE1- and MAO-B-inhibitory assays, a multimode microplate reader (SpectraMax M3, Molecular Devices, San Jose, CA, USA) was employed, providing precise readings. Analytical-grade DMSO from DEAJUNG Chemical, Korea, served as a solvent in the bioassays. Reagents and solvents, including AChE from electric eel, acetylthiocholine iodide (ATCh), BChE from equine serum, S-butyrylthiocholine iodide (BTCh), 5,5′-dithiobis [2-nitrobenzoic acid] […] Additionally, the BACE1-inhibitory assay utilized the BACE1 (β-secretase) FRET assay kit from PanVera® Corporation, Madison, USA, while the MAO-B-inhibitory assay employed the MAO-B Inhibitor Screening Kit (Fluorometric) ab284511 from Abcam plc Co., Cambridge, UK.
(§2) The inhibitory activities against cholinesterases (AChE and BChE) were evaluated using a spectrophotometric method previously developed by Ellman et al.. Specifically, ATCh and BTCh were used as substrates to measure the inhibitory effects on AChE and BChE, respectively. The assay mixture consisted of 140 μL of 0.1 M sodium phosphate buffer at pH 7.8, 20 μL of a 0.38 U/mL solution of either AChE or BChE, and 20 μL of the test sample solution. This mixture was thoroughly mixed and then incubated at room temperature for 15 min. […] Reactions were initiated by adding 10 μL of 0.5 mM DTNB and 10 μL of either 0.6 mM ATCh or BTCh. ChE-inhibitory activity was monitored by measuring the formation of the yellow 5-thio-2-nitrobenzoate anion at 412 nm over 15 min (Epoch, BioTek, Winooski, VT, USA), resulting from the reaction of DTNB and thiocholine released from ATCh or BTCh. All reactions were conducted in 96-well microplates and performed in triplicate. The percentage of inhibition (%) was determined using the following formula: inhibition (%)={(Ac−As)/Ac}×100 , where Ac represents the enzyme activity in the absence of the test sample, and As represents the enzyme activity in the presence of the test sample. The ChE-inhibitory activities of each sample were quantified in terms of IC50, which was calculated from the log–dose inhibition curve.

For another assay, the target named is T2, BChE from equine serum (Equus caballus, UniProt P81908).
T2 construct: BChE from equine serum; purchased Sigma-Aldrich Co., St. Louis, USA; host or cells: equine serum
T2 sequence (P81908 whole entry): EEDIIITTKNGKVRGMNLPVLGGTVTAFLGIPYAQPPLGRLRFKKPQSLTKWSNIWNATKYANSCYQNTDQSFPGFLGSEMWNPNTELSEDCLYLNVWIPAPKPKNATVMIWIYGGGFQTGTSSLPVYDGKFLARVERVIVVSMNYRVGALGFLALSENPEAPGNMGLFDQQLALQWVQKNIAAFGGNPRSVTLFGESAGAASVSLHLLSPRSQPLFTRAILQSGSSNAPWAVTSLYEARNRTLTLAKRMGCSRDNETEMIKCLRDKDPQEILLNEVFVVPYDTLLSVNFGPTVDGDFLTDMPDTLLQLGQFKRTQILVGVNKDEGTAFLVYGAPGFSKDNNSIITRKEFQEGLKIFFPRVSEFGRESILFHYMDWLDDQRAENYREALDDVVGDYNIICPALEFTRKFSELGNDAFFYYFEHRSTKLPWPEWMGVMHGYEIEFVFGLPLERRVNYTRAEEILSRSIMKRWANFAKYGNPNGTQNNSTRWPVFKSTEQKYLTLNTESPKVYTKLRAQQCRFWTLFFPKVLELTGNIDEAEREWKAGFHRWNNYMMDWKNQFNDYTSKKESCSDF
Briefly: biochemical. Type of assay: biochemical. On the procedure: as §1, §2

Another assay deals with T3, MAO-B (Homo sapiens, UniProt P27338).
T3 construct: purchased Abcam plc, Cambridge, UK ab284511
T3 sequence (P27338 1-520): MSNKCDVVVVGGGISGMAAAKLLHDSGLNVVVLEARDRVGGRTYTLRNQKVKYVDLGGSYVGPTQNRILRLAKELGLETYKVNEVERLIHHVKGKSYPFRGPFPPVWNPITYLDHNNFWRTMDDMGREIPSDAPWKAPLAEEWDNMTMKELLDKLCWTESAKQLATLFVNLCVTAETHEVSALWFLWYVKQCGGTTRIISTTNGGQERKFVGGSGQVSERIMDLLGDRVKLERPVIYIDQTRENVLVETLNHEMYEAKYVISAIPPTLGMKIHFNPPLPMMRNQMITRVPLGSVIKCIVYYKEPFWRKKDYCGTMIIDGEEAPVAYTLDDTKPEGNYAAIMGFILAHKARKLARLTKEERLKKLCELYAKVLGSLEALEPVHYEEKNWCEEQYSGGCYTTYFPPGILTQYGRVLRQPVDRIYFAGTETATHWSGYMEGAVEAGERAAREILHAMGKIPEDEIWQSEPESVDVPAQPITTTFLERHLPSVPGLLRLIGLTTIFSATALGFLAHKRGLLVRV
Briefly: MAO-B inhibitor screening kit (fluorometric) assay. Type of assay: biochemical. The settings on record: isolated compounds; mean ± SD, n = 3; ND = no detection using test concentration. On the procedure: The MAO-B-inhibition assay was conducted using the MAO-B Inhibitor Screening Kit (Fluorometric) ab284511 (Abcam plc, Cambridge, UK), following the manufacturer’s recommended protocol with minor modifications. The enzyme solution (50 µL) and the test sample (10 µL) were adjusted as per the manual instructions. […] After mixing, samples and enzymes were incubated at 25 °C for 10 min. Subsequently, 40 μL of MAO-B substrate (comprising MAO-B assay buffer, MAO substrate, developer, and OxiRed probe) was added, followed by further incubation at 25 °C for 5 min. Fluorescence was measured using enzyme-linked immunosorbent assay within 40 min with dynamic fluorescence (Ex/Em = 535/587 nm). All reactions were recorded in black 96-well microplates and performed in triplicate. The slope for all samples, including the enzyme control (EC), was calculated by dividing the net ΔRFU (RFU2–RFU1) values by the time Δt (T2 − T1). The % relative inhibition was computed as follows: % relative inhibition=(slope of EC−slope of S)/slope of EC×100 . The MAO-B-inhibitory activities of each sample were quantified in terms of IC50, as determined from the log–dose inhibition curve.

The next assay has as its target T4, BACE1 (Homo sapiens, UniProt P56817).
T4 construct: purchased PanVera Corporation, Madison, WI, USA P2985
Briefly: BACE1 (β-secretase) FRET inhibitory assay. Type of assay: biochemical. On the procedure:
The BACE1 inhibition assay was conducted using the BACE1 (β-secretase) FRET Assay Kit, Red Protocol, part number P2985 (PanVera® Corporation, Madison, WI, USA), following the manufacturer’s recommended protocol with minor modifications. The assay mixture consisted of 10 μL of BACE1 (1.0 U/mL), 10 μL of substrate (750 nM Rh-[…]-Quencher in 50 mM ammonium bicarbonate), the assay buffer (50 mM sodium acetate, pH 4.5), and 10 μL of the test samples. […] The reaction mixture was incubated for 60 min at room temperature in darkness. Before measurement, a stop solution (2.5 M sodium acetate) was added to halt the reaction. BACE1 enzyme activity was assessed by monitoring the proteolysis of two fluorophores (Rh-[…]-Quencher), forming the fluorescent donor (Rh-EVNL) with increased fluorescence wavelengths at 530–545 nm (excitation) and 570–590 nm (emission), respectively. All reactions were recorded in black 96-well microplates and performed in triplicate. The percentage of inhibition (%) was calculated using the following formula: inhibition (%)=[1−(S60−S0)/(C60−C0)]×100 , where C60 represents the fluorescence of the control after incubation, C0 represents the initial fluorescence of the control, S60 represents the fluorescence of the tested sample after incubation, and S0 represents the initial fluorescence of the tested sample. The BACE1-inhibitory activities of each sample were quantified in terms of IC50, which was determined from the log–dose inhibition curve.

A further assay relates to β-secretase. Briefly: Western blot of β-secretase levels in APP-CHO cells. The format is cell-based, Chinese hamster. Particulars: 24 h; for reduction of β-secretase levels compared to DMSO-treated controls: 1.0 μM. On the procedure:
(§3) APP-CHO cells were seeded in six-well plates at a density of 6 × 10^5 cells/1000 μL of medium per well and incubated at 37 °C overnight for cell attachment. Then, the medium was replaced with FBS-free RPMI 1640 for 1 h, followed by treatment with test samples at 37 °C. After 24 h, the cells were washed with PBS and lysed in Laemmli sample buffer. The collected cell lysates were boiled at 100 °C for 10 min. For Western blot analysis, 20 μg of proteins were separated by 7.5% SDS-PAGE and transferred to a PVDF membrane using Trans-Blot® Turbo TM (Bio-Rad, Hercules, CA, USA). The membrane was blocked with 5% skim milk in PBS for 1 h and incubated with primary antibodies overnight at 4 °C. The primary antibodies used were sAPPβ antibody, BACE1 antibody, and α-tubulin antibody diluted at 1:1000, 1:1000, and 1:25,000, respectively. After washing with PBS-T (0.1% Tween 20 in PBS) three times for 10 min each, secondary antibodies, diluted to 1:2500, were incubated for 1 h. Protein detection was performed using ECL solution reagent and protein visualization (ChemiDoc^TM XRS+., Bio-Rad, Hercules, CA, USA). The signal intensity of the bands was quantified and normalized to the signal intensity of the α-tubulin band. Results were expressed as a percentage of DMSO-treated control.
On the technique in general: Immunoblotting shows a protein as a band on a membrane.

The test system of assay [1] is cultured cortical neurons. More on the design: method as in PMID 26299900. Particulars: cited from earlier work.
A further assay has as its system sAPPβ. Briefly: Western blot of sAPPβ levels in APP-CHO cells. Type of assay: cell-based, Chinese hamster. Particulars: 24 h; for reduction of sAPPβ levels compared to DMSO-treated controls: 1.0 μM. As for the experimental part: as §3
Where [2] appears, read: isolated compounds, mean ± SD, n = 3, ND = no detection using test concentration, read-out: IC50 AChE.
[3] abbreviates: isolated compounds, mean ± SD, n = 3, ND = no detection using test concentration, read-out: IC50 BChE.
[4] abbreviates: isolated compounds, mean ± SD, n = 3, read-out: IC50 BACE1.
Where [5] appears, read: isolated compounds, mean ± SD, n = 3, ND = no detection using test concentration.

Several values for one entry are separate records, joined by “and”; a condition that tells them apart may be missing. Identical values can stand only once. Like-named read-outs stand apart in the source and are kept apart here.

T1 sequence (O42275 24-633): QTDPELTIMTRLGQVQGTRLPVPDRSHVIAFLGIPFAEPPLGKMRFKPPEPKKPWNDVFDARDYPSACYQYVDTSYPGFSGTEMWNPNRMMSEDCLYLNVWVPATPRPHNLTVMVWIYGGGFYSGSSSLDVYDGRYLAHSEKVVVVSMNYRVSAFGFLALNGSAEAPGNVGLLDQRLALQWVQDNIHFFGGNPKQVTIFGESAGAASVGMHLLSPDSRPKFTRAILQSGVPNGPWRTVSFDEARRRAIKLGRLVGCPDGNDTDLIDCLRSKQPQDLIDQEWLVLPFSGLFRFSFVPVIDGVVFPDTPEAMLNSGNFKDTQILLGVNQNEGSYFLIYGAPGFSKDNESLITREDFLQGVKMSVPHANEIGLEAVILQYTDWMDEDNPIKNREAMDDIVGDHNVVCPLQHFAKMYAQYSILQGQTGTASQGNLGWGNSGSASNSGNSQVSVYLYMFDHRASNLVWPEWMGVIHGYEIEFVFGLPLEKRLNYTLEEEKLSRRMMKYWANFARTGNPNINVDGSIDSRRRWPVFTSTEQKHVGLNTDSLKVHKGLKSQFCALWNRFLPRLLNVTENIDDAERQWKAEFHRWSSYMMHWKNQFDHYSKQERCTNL
T4 sequence (P56817 46-501): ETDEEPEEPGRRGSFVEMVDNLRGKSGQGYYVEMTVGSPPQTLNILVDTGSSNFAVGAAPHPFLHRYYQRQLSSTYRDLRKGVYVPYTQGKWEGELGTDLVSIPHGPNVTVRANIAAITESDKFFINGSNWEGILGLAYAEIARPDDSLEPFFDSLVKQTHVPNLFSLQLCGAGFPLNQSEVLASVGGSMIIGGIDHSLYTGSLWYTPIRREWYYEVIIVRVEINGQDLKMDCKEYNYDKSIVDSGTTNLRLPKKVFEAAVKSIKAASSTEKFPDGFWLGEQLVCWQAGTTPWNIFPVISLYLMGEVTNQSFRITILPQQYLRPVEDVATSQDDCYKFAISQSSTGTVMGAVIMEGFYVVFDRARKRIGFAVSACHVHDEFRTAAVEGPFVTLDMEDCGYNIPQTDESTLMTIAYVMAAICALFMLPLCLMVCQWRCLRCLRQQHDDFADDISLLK

For orientation: IC50 means the concentration that gives 50% inhibition. On to `COc1ccc2cc3[n+](cc2c1OC)CCc1cc2c(cc1-3)OCO2` [Berberine, berberine, reference compound], for which, on AChE from electric eel, the half-inhibitory concentration (IC50) was 0.119 µM.
Regarding `O=C(O)/C=C/c1ccc(O[C@@H]2O[C@H](CO)[C@@H](O)[C@H](O)[C@H]2O)cc1` [Compound 1, coumaric acid 4-O-β-D-glucopyranoside], the IC50 is 33.4 ± 0.42 µM at AChE from electric eel (setting [2]), 53.8 ± 1.15 µM on BChE from equine serum (setting [3]), greater than 1000 µM at MAO-B and greater than 1000 µM on BACE1 (setting [4]).
Take `O=C(O)/C=C/c1ccc(O[C@@H]2O[C@H](CO)[C@@H](O)[C@H](O)[C@H]2O)c(O)c1` [Compound 2, caffeic acid 4-O-β-D-glucopyranoside]: the half-inhibitory concentration (IC50) worked out at 14.77 ± 0.07 µM on AChE from electric eel (setting [2]), 488 ± 10.1 µM at BChE from equine serum (setting [3]), 401.3 ± 2.66 µM at MAO-B and 45 ± 0.48 µM on BACE1 (setting [4]). Moreover, the “reduction of β-secretase expression levels” value with β-secretase (0.5 μM) is given as 40%. Besides, in assay [1] (10 μM), the “axonal regrowth effect on Aβ25–35-induced atrophy” value was “significant axonal regrowth effects”. Moreover, the “reduction of sAPPβ expression levels” value in the assay with sAPPβ (0.5 μM) stood at 50%.
`COc1cc(/C=C/C(=O)O)ccc1O[C@@H]1O[C@H](CO)[C@@H](O)[C@H](O)[C@H]1O` [Compound 3, lavandoside]: the “IC50 AChE” value at AChE from electric eel (setting [5]) is on record as “did not demonstrate cholinesterase-inhibitory activity”. Also, the “IC50 BChE” value at BChE from equine serum (setting [5]) is recorded as “did not demonstrate cholinesterase-inhibitory activity”. Also, the figures for the half-maximal inhibitory concentration (IC50) against MAO-B and at BACE1 (setting [4]) were 155 ± 7.18 µM and 235 ± 6.86 µM, respectively.
With `COc1cc(/C=C/C(=O)O)cc(OC)c1O[C@@H]1O[C@H](CO)[C@@H](O)[C@H](O)[C@H]1O` [Compound 4, trans-p-sinapoyl-β-D-glucopyranoside], the concentration for half-maximal inhibition (IC50) was 30.6 ± 0.38 µM on BChE from equine serum (setting [3]), 600.9 ± 3.72 µM on MAO-B and 147.4 ± 0.74 µM at BACE1 (setting [4]).
In the case of `C[C@@H]1O[C@@H](O[C@H]2[C@H](Oc3cc(O)c4c(=O)ccoc4c3)O[C@H](CO)[C@@H](O)[C@@H]2O)[C@H](O)[C@H](O)[C@H]1O` [Compound 5, 5,7-dihydroxychromone-7-O-neohesperidoside], the IC50 at AChE from electric eel (setting [2]) is greater than 1000 µM; at BChE from equine serum (setting [3]), 38.8 ± 0.71 µM; on BACE1 (setting [4]) it was greater than 1000 µM.
Regarding `C[C@@H]1O[C@@H](O[C@H]2[C@H](Oc3cc(O)c4c(c3)O[C@H](c3ccc(O)c(O)c3)CC4=O)O[C@H](CO)[C@@H](O)[C@@H]2O)[C@H](O)[C@H](O)[C@H]1O` [Compound 8, neoeriocitrin], the IC50 against AChE from electric eel was 31.65 ± 0.14 µM; at BChE from equine serum, 30.04 ± 0.23 µM; against MAO-B, 2.64 ± 0.016 µM; against BACE1, 13.7 ± 0.14 µM. Besides, the “axonal regrowth effect on Aβ25–35-induced atrophy” value in assay [1] (1 and 10 μM) is on record as “significant axonal regrowth effects”.
`C[C@@H]1O[C@@H](O[C@H]2[C@H](Oc3cc(O)c4c(c3)O[C@H](c3ccc(O)cc3)CC4=O)O[C@H](CO)[C@@H](O)[C@@H]2O)[C@H](O)[C@H](O)[C@H]1O` [Compound 9, naringin]: the half-maximal inhibitory concentration (IC50) worked out at 124 ± 35.3 µM against AChE from electric eel, 252 ± 12.3 µM at BChE from equine serum, 51.26 ± 0.14 µM against MAO-B and 64.95 ± 0.17 µM at BACE1 (setting [4]). Besides, the “reduction of β-secretase levels compared to DMSO-treated controls” value with β-secretase was 40% and 30%. Further, the “reduction of sAPPβ levels compared to DMSO-treated controls” value in the assay on sAPPβ turned out to be 30%.
With `COc1ccc([C@@H]2CC(=O)c3c(O)cc(O[C@@H]4O[C@H](CO[C@@H]5O[C@@H](C)[C@H](O)[C@@H](O)[C@H]5O)[C@@H](O)[C@H](O)[C@H]4O)cc3O2)cc1O` [Compound 10, hesperidin], the IC50 at AChE from electric eel worked out at 57.7 ± 5.96 µM; at BChE from equine serum, 331.77 ± 0.14 µM; against MAO-B, 98.77 ± 0.14 µM; on BACE1 (setting [4]) it was 55.72 ± 0.17 µM. Also, in the assay with β-secretase, the “reduction of β-secretase levels compared to DMSO-treated controls” value is reported as 30%. For the same molecule, the “reduction of sAPPβ levels compared to DMSO-treated controls” value in the assay on sAPPβ is reported as 30%.
